# Read-outs that look alike come from different tables or passages of the source.
# What was measured:
# [1] = system: human cervix carcinoma KB-3-1 cancer cell lines; assay: Cytotoxicity on KB-3-1 cells; conditions: called IC50 in the text
# [2] = system: Plasmodium falciparum FCB1 (chloroquine-resistant); parameters: method as in PMID 15863333; conditions: Pf FCB1; ref [17]; cited from earlier work
# [3] = system: Plasmodium falciparum K1 (multi-resistant); parameters: method as in PMID 29172699; conditions: Pf K1; ref [18]; cited from earlier work
# [4] = system: P. falciparum Dd2 (multidrug-resistant); assay: Plasmodium falciparum growth inhibition assay (SYBR green I), Dd2 strain; assay type: cell-based; conditions: for IC50: Plasmodium falciparum, read-out: IC50/PfDd2
# [5] = system: P. falciparum 3D7 (Chloroquine-sensitive); assay: Plasmodium falciparum growth inhibition assay (SYBR green I), 3D7 strain; assay type: cell-based; conditions: read-out: IC50/Pf3D7
# [6] = system: human cervix carcinoma KB-3-1 cancer cell lines
# [7] = DD2, compounds and reference drugs, 72 h incubation
# [8] = 3D7, compounds and reference drugs, 72 h incubation
Compound,IC50 [3],"IC50 ([4]; DD2, 72 h)","IC50 ([5]; 3D7, 72 h)",RI: [IC50PfDd2/IC50Pf3D7] ([4]; Resistance Index),further results
Cryptophycin,,,,,CC50 on KB-3-1 [1]: 1.3 × 10^−5 μM µM; CC50 on KB-3-1 ([1]; listed as cryptophycin): 1.3e-05 µM
"CC(C)=CCC(=O)O[C@@H]1C[C@H]2[C@@H](CC=C3C[C@@H](N(C)C)CC[C@@]32C)[C@@H]2CC[C@@H]3[C@H](C)N(C)C[C@]312 [compound 10, Holarrhetine]",,,,,IC50 [2]: 1130 ± 320 nM
"CC(O)C1CCC2C3CC=C4CC(N)CCC4(C)C3CCC12C (centres unmarked) [compound 15, Holaphyllaminol]",11.7 µM,,,,
"CCN(CC)CCCC(C)Nc1ccnc2cc(Cl)ccc12 (centres unmarked) [Chloroquine, reference compound]",,0.73 ± 0.09 µM,0.045 ± 0.003 µM,,RI: [IC50PfDd2/IC50Pf3D7] [4]: 16.22
"CNC1CCC2(C)C(=CCC3C2CCC2(C)C(C(C)=O)CCC32)C1 (centres unmarked) [compound 16, N-methylholaphyllamine]",10.6 µM,,,,
"CC1N=CC23CCC4C(CC=C5CC(N)CCC54C)C2CCC13 (centres unmarked) [compound 3, Irheline]",1.2 µM,,,,"IC50 [4, 7]: > 50 µM; IC50 [5, 8]: > 50 µM"
"CC(=O)C1CCC2C3CC=C4CC(N)CCC4(C)C3CCC12C (centres unmarked) [compound 14, Holaphyllamine]",,55.8 ± 9.75 µM,49.5 ± 4.83 µM,1.12,CC50 on KB-3-1 [6]: 9.8 µM
"COc1cc(C)c2c(=O)c3c(O)cc(OC)cc3oc2c1 [compound 27, lichexanthone]",,36.5 ± 1.39 µM,33.4 ± 1.2 µM,1.09,
"C[C@H]1[C@H]2CC[C@H]3[C@@H]4CC=C5C[C@@H](N(C)C)CC[C@]5(C)[C@H]4CC[C@]23CN1C [compound 5, Conessine]",,28.5 ± 0.704 µM,26 ± 0.43 µM,1.09,IC50 [2]: 1040 nM
"C[C@@H]1CC[C@H]2[C@@H](C)C(=O)O[C@@H]3O[C@@]4(C)CC[C@@H]1[C@]32OO4 [Artemisinin, reference compound]",,,,0.71,"IC50 [4, 7]: 0.025 ± 0.006 µM; IC50 [5, 8]: 0.035 µM"
"CNC1CCC2(C)C(=CCC3C2CC(OC(=O)CC=C(C)C)C24CN(C)C(C)C2CCC34)C1 (centres unmarked) [compound 11, Holarrhesine]",,,,,IC50 [2]: 970 ± 110 nM
"CNC1CCC2(C)C(=CCC3C2CCC24CNC(C)C2CCC34)C1 (centres unmarked) [compound 4, Conimin/conamine]",8 µM,,,,
"CCOC(=O)c1c(C)cc(O)cc1O [compound 26, ethylorsalinate]",,,,,"IC50 [4, 7]: > 50 µM; IC50 [5, 8]: > 50 µM"
